Source: patent US20240400560A1, “BICYCLIC HETEROCYCLIC DERIVATIVE HAVING VIRAL GROWTH INHIBITORY ACTIVITY AND PHARMACEUTICAL COMPOSITION CONTAINING SAME” (Shionogi & Co., Ltd., priority 2021, published 2024)
Read-outs that look alike come from different tables or passages of the source.

Key:
SARS-CoV-2 = assay: Inhibitory activity of cytopathic effect (CPE) in HEK293T/ACE2-TMPRSS2 cells; assay type: cell-based
SARS-CoV-2 3CL protease = SARS-CoV-2 3CL protease (Severe acute respiratory syndrome coronavirus 2, UniProt P0DTD1); assay: Inhibitory activity test against SARS-CoV-2 3CL proteases; assay type: biochemical
[1] = Severe acute respiratory syndrome coronavirus 2, HEK-293T, 72 h, 50% SARS-CoV-2 infected cell death inhibitory concentration, HEK293T/ACE2-TMPRSS2 cells, CellTiter-Glo 2.0 after 3 days culture, read-out: EC50
[2] = read-out: IC50 (50% SARS-CoV-2 3CL protease inhibitory concentration)
[3] = Severe acute respiratory syndrome coronavirus 2, HEK-293T, 72 h, HEK293T/ACE2-TMPRSS2 cells, cultured 3 days, CellTiter-Glo 2.0 luminescence, read-out: EC50 (50% SARS-CoV-2 infected cell death inhibitory concentration)
[4] = Severe acute respiratory syndrome coronavirus 2, HEK-293T, 72 h, read-out: EC50 (50% SARS-CoV-2 infected cell death inhibitory concentration)
[5] = IC50 (50% SARS-CoV-2 3CL protease inhibitory concentration)
[6] = Severe acute respiratory syndrome coronavirus 2, HEK-293T, 72 h

| Structure (SMILES) | EC50 (SARS-CoV-2; [1]) | IC50 (SARS-CoV-2 3CL protease; [2]) | EC50 (SARS-CoV-2; [3]) | also measured |
| --- | --- | --- | --- | --- |
| CCNC(=O)[C@@H]1CCN(c2cc3c(c(OC)n2)c(=O)n(-c2cnc4cc(F)ccn24)c(=O)n3-c2ccc(F)c(Cl)c2)C1 [Compound I-0626] | 55.2 nM | 14 nM |  |  |
| COc1nc(N2CC[C@@H](C(=O)N3CCOCC3)C2)cc2c1c(=O)n(-c1cnc3cc(F)ccn13)c(=O)n2-c1ccc(F)c(Cl)c1 [Compound I-0627] |  | < 100 nM | < 100 nM |  |
| O=c1c2c(=O)n(-c3cnc4cc(F)ccn34)c(=O)n(-c3ccc(F)c(Cl)c3)c2cc2n1C[C@@H]1CCCN21 [Compound I-0628] | 661 nM | 26 nM |  |  |
| Cn1cnc(Cn2c(=O)c3c4ncccc4c(-c4cc(C#N)ccc4Cl)cc3n(Cc3cc(F)c(F)c(F)c3)c2=O)n1 [Compound I-0632] | 50.1 nM | 3.1 nM |  |  |
| Cc1c(-c2cc(C#N)ccc2Cl)cc2c(c1F)c(=O)n(Cc1ncn(C)n1)c(=O)n2Cc1cc(F)c(F)c(Cl)c1 [Compound I-0637] |  | < 100 nM | < 100 nM |  |
| Cn1cnc(Cn2c(=O)c3c(F)c(C4CC4)c(-c4cc(C#N)ccc4Cl)cc3n(Cc3cc(F)c(F)c(Cl)c3)c2=O)n1 [Compound I-0638] |  | < 100 nM | < 100 nM |  |
| Cn1cnc(Cn2c(=O)c3c(cc(-c4cc(C#N)ccc4Cl)n4nnnc34)n(Cc3cc(F)c(F)c(F)c3)c2=O)n1 [Compound I-0639] |  | < 100 nM | 100 to 1000 nM |  |
| Cn1cnc(Cn2c(=O)c3c(cc(-c4cc(C#N)ccc4Cl)n4ccnc34)n(Cc3cc(F)c(F)c(F)c3)c2=O)n1 [Compound I-0642] | 640 nM | 3 nM |  |  |
| Cc1cnc2c3c(=O)n(Cc4ncn(C)n4)c(=O)n(Cc4cc(F)c(F)c(F)c4)c3cc(-c3cc(C#N)ccc3Cl)n12 [Compound I-0643] | 520 nM | 4.3 nM |  |  |
| Cn1cnc(Cn2c(=O)c3c(cc(-c4cc(C#N)ccc4Cl)n4ncnc34)n(Cc3cc(F)c(F)c(F)c3)c2=O)n1 [Compound I-0645] |  | 100 to 1000 nM | 100 to 1000 nM |  |
| COc1nc(N2[C@@H]3CC[C@H]2CNC3)cc2c1c(=O)n(-c1cnc3ccccn13)c(=O)n2Cc1cc(F)c(F)c(F)c1 [Compound I-0646] |  |  |  | EC50 (SARS-CoV-2; [4]): < 100 nM; IC50 (SARS-CoV-2 3CL protease; [5]): < 100 nM |
| Cn1cnc(Cn2c(=O)c3c(cc(-c4cc(C#N)ccc4Cl)n4c(=O)[nH]nc34)n(Cc3cc(F)c(F)c(F)c3)c2=O)n1 [Compound I-0647] | 13900 nM | 5.7 nM |  |  |
| COc1nc(N2[C@@H]3CCC[C@H]2CNC3)cc2c1c(=O)n(-c1cnc3ccccn13)c(=O)n2Cc1cc(F)c(F)c(Cl)c1 [Compound I-0648] |  |  |  | EC50 (SARS-CoV-2; [4]): < 100 nM; IC50 (SARS-CoV-2 3CL protease; [5]): < 100 nM |
| COc1nc(N2[C@@H]3CC[C@H]2CNC3)cc2c1c(=O)n(-c1cnc3ccc(Cl)cn13)c(=O)n2Cc1cc(Cl)ccc1Cl [Compound I-0649] |  |  |  | EC50 (SARS-CoV-2; [4]): < 100 nM; IC50 (SARS-CoV-2 3CL protease; [5]): < 100 nM |
| COc1cc(N2[C@@H]3CC[C@H]2CNC3)cc2c1c(=O)n(-c1cnc3cc(F)ccn13)c(=O)n2Cc1cc(Cl)c(F)cc1C [Compound I-0650] |  |  |  | EC50 (SARS-CoV-2; [6]): 27.3 nM; IC50 (SARS-CoV-2 3CL protease; [5]): 1.2 nM |
| COc1nc(NC(C)C)cc2c1c(=O)n(-c1cnc3cc(F)ccn13)c(=O)n2-c1ccc(F)c(Cl)c1 [Compound I-0651] | 13 nM | 8.5 nM |  |  |
| COc1nc(N2CC[C@@H](C#N)C2)cc2c1c(=O)n(-c1cnc3cc(F)ccn13)c(=O)n2-c1ccc(F)c(Cl)c1 [Compound I-0652] | 7.43 nM | 1.4 nM |  |  |
| COCCN(C)c1cc2c(c(OC)n1)c(=O)n(-c1cnc3cc(F)ccn13)c(=O)n2-c1ccc(F)c(Cl)c1 [Compound I-0653] | 11.6 nM | 14 nM |  |  |
| COc1nc(N2CCC(F)(F)C2)cc2c1c(=O)n(-c1cnc3ccc(C#N)cn13)c(=O)n2-c1ccc(F)c(Cl)c1 [Compound I-0654] |  | < 100 nM | < 100 nM |  |
| COc1nc(N2CCC(F)(F)C2)cc2c1c(=O)n(-c1cnc3cc(F)c(Cl)cn13)c(=O)n2-c1ccc(F)c(Cl)c1 [Compound I-0655] |  | < 100 nM | < 100 nM |  |
| CCC(=O)c1ccc(Cl)c(-c2cc(OC)c3c(=O)n(Cc4ncn(C)n4)c(=O)n(Cc4cc(F)c(F)c(F)c4)c3c2)c1 [Compound I-0657] | 76.1 nM | 20 nM |  |  |

| Structure (SMILES) | EC50 (SARS-CoV-2; [1]) | IC50 (SARS-CoV-2 3CL protease; [2]) | EC50 (SARS-CoV-2; [3]) | also measured |
| --- | --- | --- | --- | --- |
| Cc1cncc(-n2c(=O)c3c(n(Cc4cc(F)c(F)c(F)c4)c2=O)CN(c2cc(C#N)ccc2Cl)CC3)c1 [Compound I-0658] |  | 100 to 1000 nM | 100 to 1000 nM |  |
| COc1cc(-c2cc(C#N)ccc2Cl)cc2c1c(=O)n(-c1cnc3ccccn13)c(=O)n2Cc1cc(F)c(F)c(F)c1 [Compound I-0660] |  | < 100 nM | < 100 nM |  |
| COc1cc(-c2cc(C#N)ccc2Cl)cc2c1c(=O)n(-c1cnc3ccccn13)c(=O)n2Cc1cc(F)c(F)c(F)c1 [Compound I-0661] |  | < 100 nM |  | EC50 (SARS-CoV-2; HEK293T/ACE2-TMPRSS2 cells, cultured 3 days, CellTiter-Glo 2.0 luminescence, read-out: EC50 (50% SARS-CoV-2 infected cell death inhibitory concentration)): < 100 nM |
| COc1cc(N2[C@@H]3CC[C@H]2CNC3)cc2c1c(=O)n(-c1cnc3ccccn13)c(=O)n2Cc1cc(F)c(F)c(F)c1 [Compound I-0666] |  |  |  | EC50 (SARS-CoV-2; [4]): 100 to 1000 nM; IC50 (SARS-CoV-2 3CL protease; [5]): < 100 nM |
| COc1nc(N2[C@@H]3CC[C@H]2CNC3)cc2c1c(=O)n(-c1cnc3ccc(Cl)cn13)c(=O)n2Cc1cc(F)c(F)c(F)c1 [Compound I-0671] |  |  |  | EC50 (SARS-CoV-2; [6]): 21 nM; IC50 (SARS-CoV-2 3CL protease; [5]): 3.3 nM |
| COc1nc(-c2cc(C#N)ccc2Cl)cc2c1c(=O)n(-c1cnc3cc(F)ccn13)c(=O)n2Cc1cc(F)c(F)c(F)c1 [Compound I-0672] |  | < 100 nM | < 100 nM |  |
| COc1nc(N2CC[C@@H](F)C2)cc2c1c(=O)n(-c1cnc3cc(F)ccn13)c(=O)n2Cc1cc(F)c(F)c(F)c1 [Compound I-0673] |  | < 100 nM | < 100 nM |  |
| COc1nc(-c2cc(C#N)ccc2Cl)cc2c1c(=O)n(-c1cnc3ccc(F)cn13)c(=O)n2Cc1cc(F)c(F)c(F)c1 [Compound I-0680] |  | < 100 nM | < 100 nM |  |
| Cn1c(-c2cc(C#N)ccc2Cl)cc2c(c1=O)c(=O)n(-c1cnc3ccc(F)cn13)c(=O)n2Cc1cc(F)c(F)c(F)c1 [Compound I-0681] |  | < 100 nM | < 100 nM |  |
| COc1nc(N2[C@@H]3CC[C@H]2CNC3)cc2c1c(=O)n(-c1cnc3cc(F)ccn13)c(=O)n2Cc1cc(F)c(F)c(F)c1 [Compound I-0682] |  |  |  | EC50 (SARS-CoV-2; [4]): < 100 nM; IC50 (SARS-CoV-2 3CL protease; [5]): < 100 nM |
| COc1nc(N2[C@@H]3CC[C@H]2CNC3)cc2c1c(=O)n(-c1cnc3cc(Cl)ccn13)c(=O)n2Cc1cc(F)c(F)c(F)c1 [Compound I-0683] |  |  |  | EC50 (SARS-CoV-2; [6]): 45.4 nM; IC50 (SARS-CoV-2 3CL protease; [5]): 9.9 nM |
| Cn1cnc(Cn2c(=O)c3ncc(N4C[C@H]5C[C@@H]4CN5)nc3n(Cc3cc(F)c(F)c(F)c3)c2=O)n1 [Compound I-0684] | 4580 nM | 370 nM |  |  |
| Cn1cnc(Cn2c(=O)c3nc(OCC#N)c(-c4cc(C#N)ccc4Cl)cc3n(Cc3cc(F)c(F)c(F)c3)c2=O)n1 [Compound I-0685] | 82.2 nM | 28 nM |  |  |
| CCCn1c(-c2cc(C#N)ccc2Cl)cc2c(c1=O)c(=O)n(-c1cncc(Cl)c1)c(=O)n2Cc1cc(F)c(F)c(F)c1 [Compound I-0686] | 22.4 nM | 1.7 nM |  |  |
| CCOc1nc2c(=O)n(Cc3ncn(C)n3)c(=O)n(Cc3cc(F)c(F)c(F)c3)c2cc1-c1cc(C#N)ccc1Cl [Compound I-0692] |  | < 100 nM | < 100 nM |  |
| Cn1cnc(Cn2c(=O)c3c(cc(-c4cc(C#N)ccc4Cl)c[n+]3[O-])n(Cc3cc(F)c(F)c(F)c3)c2=O)n1 [Compound I-0697] |  | 100 to 1000 nM | 1000 to 10000 nM |  |
| COc1nc2c(=O)n(Cc3ncn(C)n3)c(=O)n(Cc3cc(F)c(F)c(F)c3)c2cc1-c1cc(C#N)ccc1Cl [Compound I-0699] |  | < 100 nM | < 100 nM |  |
| COc1nc2c(=O)n(Cc3ncn(C)n3)c(=O)n(Cc3cc(F)c(F)c(Cl)c3)c2cc1-c1cc2c(cc1Cl)NC(=O)C2 [Compound I-0700] | 24.5 nM | 0.92 nM |  |  |
| COc1nc2c(=O)n(Cc3ncn(C)n3)c(=O)n(Cc3cc(F)c(F)c(Cl)c3)c2cc1-c1cc(C(C)(C)O)ccc1Cl [Compound I-0701] | 16 nM | 5 nM |  |  |
| C=Cc1nc2c(=O)n(Cc3ncn(C)n3)c(=O)n(Cc3cc(F)c(F)c(F)c3)c2cc1-c1cc(C#N)ccc1Cl [Compound I-0705] |  | < 100 nM | < 100 nM |  |
| COc1c(-c2cc(C#N)ccc2Cl)cc2c(c(=O)n(Cc3ncn(C)n3)c(=O)n2Cc2cc(F)c(F)c(F)c2)[n+]1[O-] [Compound I-0709] |  | 100 to 1000 nM | 1000 to 10000 nM |  |
